The values below come from US20240124412A1, “IKAROS ZINC FINGER FAMILY DEGRADERS AND USES THEREOF” (Gilead Sciences, Inc., priority 2021, published 2024).

One test addresses T1, IKZF1 (Homo sapiens, UniProt Q13422+Q96SW2).
T1 construct: expressed in transfected cells
Put plainly: HiBiT protein tagging assay, in vitro IKZF1 degradation (HEK293). It counts as cell-based. The note with it: HEK293, 18-24 hr incubation, normalized to DMSO control; for Dmax: read-out: IKZF1 Dmax (maximum degradation at the highest concentration tested); for DC50: read-out: IKZF1 EC50. In a few lines: (§1)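 Flp-In T-REx HEK293 pools stably expressing C-terminal HiBiT-tagged IKZF1 or IKZF2 were induced overnight with 1 μg/ml doxycycline. Cells were then treated with serially diluted compound for 18-24 hr at 37 °C and read by Nano-Glo lytic luminescence. Data were normalized to 0.5% DMSO as POC; EC50 and Dmax (maximum degradation at highest concentration tested) reported.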
In general terms: HiBiT is a short tag that completes a luciferase, so light tracks the accessible tagged protein.

The next test concerns the target T2, IKZF2 (Homo sapiens, UniProt Q96SW2+Q9UKS7).
T2 construct: expressed in transfected cells
As to the kind of experiment: HiBiT protein tagging assay, in vitro IKZF2 degradation (HEK293). It counts as cell-based. As to conditions: HEK293, 18-24 hr incubation, normalized to DMSO control; for Dmax: HEK293, HiBiT assay, read-out: IKZF2 Dmax (maximum degradation at the highest concentration tested); for DC50: HiBiT assay, read-out: IKZF2 EC50. In a few lines:
as §1

T1 sequence (Q13422 whole entry): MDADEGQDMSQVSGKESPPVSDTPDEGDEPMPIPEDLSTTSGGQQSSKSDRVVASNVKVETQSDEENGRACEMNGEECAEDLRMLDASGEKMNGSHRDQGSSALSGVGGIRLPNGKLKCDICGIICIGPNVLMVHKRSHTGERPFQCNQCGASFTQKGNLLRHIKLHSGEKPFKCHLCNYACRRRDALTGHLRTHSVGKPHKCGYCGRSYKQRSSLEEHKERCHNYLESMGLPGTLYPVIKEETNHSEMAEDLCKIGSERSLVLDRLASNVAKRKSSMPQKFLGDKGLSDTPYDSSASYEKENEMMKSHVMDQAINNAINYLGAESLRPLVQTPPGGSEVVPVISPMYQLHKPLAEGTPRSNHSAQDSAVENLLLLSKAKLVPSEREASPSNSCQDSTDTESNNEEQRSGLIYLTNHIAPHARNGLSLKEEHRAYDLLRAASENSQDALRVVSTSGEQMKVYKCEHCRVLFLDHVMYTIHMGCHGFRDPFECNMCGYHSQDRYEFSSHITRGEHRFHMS
T1 sequence (Q96SW2 whole entry): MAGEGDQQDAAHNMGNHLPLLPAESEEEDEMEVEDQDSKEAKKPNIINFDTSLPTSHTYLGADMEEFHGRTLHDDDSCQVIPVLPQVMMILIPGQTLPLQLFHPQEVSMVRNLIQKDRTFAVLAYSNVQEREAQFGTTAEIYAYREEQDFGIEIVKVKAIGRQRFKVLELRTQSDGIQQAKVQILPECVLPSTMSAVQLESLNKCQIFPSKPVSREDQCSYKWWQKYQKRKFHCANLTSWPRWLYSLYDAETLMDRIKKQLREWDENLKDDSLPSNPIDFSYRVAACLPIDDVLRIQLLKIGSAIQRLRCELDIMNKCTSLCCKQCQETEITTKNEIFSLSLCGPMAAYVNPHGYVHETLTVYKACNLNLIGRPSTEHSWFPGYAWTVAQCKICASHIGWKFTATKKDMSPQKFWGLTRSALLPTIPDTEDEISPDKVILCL
T1 sequence (Q16531 whole entry partner): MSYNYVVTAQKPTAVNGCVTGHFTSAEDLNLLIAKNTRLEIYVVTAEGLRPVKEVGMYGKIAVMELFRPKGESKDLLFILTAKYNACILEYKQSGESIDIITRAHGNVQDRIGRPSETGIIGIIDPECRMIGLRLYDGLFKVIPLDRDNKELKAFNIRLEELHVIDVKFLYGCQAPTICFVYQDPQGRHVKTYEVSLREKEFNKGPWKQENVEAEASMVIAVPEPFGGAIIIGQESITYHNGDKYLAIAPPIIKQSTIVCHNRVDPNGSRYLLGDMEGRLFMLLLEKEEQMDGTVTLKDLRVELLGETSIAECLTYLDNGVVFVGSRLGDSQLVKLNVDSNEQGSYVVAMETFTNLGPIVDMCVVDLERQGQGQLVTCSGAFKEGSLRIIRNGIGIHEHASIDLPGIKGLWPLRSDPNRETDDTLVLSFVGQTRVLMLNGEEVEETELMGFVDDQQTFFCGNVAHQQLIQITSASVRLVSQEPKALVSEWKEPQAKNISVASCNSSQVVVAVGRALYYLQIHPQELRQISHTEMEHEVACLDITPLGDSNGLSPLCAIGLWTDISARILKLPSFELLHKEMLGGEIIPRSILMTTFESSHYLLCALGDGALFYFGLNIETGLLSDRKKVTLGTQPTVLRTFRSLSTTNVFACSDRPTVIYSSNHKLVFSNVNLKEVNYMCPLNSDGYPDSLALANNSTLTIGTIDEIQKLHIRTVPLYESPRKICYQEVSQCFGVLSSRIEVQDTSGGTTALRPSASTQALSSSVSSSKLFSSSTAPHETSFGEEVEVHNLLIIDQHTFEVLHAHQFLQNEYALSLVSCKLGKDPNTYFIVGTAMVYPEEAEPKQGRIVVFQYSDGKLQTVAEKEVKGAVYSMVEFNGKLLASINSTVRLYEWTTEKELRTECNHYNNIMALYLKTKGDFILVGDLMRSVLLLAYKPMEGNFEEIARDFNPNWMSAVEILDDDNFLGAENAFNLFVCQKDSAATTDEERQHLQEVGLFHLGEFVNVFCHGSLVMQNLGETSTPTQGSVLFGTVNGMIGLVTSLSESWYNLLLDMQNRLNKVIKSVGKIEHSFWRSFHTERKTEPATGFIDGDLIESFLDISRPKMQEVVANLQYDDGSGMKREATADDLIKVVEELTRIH
T2 sequence (Q9UKS7 1-500 isoform Q9UKS7-2): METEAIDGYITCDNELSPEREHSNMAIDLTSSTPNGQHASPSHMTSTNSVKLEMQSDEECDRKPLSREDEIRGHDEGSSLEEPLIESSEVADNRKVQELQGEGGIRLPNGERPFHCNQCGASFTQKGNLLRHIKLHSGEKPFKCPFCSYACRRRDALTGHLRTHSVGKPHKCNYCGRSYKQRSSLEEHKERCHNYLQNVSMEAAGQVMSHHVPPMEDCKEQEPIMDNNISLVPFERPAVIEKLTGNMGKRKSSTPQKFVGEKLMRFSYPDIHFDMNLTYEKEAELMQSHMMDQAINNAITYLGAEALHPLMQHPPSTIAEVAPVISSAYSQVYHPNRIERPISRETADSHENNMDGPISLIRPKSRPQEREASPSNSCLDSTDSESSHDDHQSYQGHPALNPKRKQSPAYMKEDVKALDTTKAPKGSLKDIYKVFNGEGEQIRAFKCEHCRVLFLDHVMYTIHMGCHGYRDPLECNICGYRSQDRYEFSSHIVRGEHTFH
T2 sequence (Q96SW2 whole entry): as the sequence (Q96SW2 whole entry) above
T2 sequence (Q16531 whole entry partner): as the sequence (Q16531 whole entry partner) above

For `O=C1CCC(N2Cc3cc(CNC4CC5CNC4C5)ccc3C2=O)C(=O)N1` (stereo not drawn) [Example 98, 3-(5-((((1,4,6-cis)-2-azabicyclo[2.2.1]heptan-6-yl)amino)methyl)-1-oxoisoindolin-2-yl)piperidine-2,6-dione], on IKZF1, the Dmax came to 22% and the DC50 worked out at 1.5 µM. Moreover, on IKZF2, the Dmax came out at 39% and the DC50 worked out at 1.8 µM.
Taken in the same sequence, the figures for `O=C1CCC(N2Cc3cc(CN[C@@H]4CCCN(Cc5cccc(Cl)c5)C4)ccc3C2=O)C(=O)N1` (stereo partly drawn) [Example 99, 3-(5-((((R)-1-(3-chlorobenzyl)piperidin-3-yl)amino)methyl)-1-oxoisoindolin-2-yl)piperidine-2,6-dione] were 97%, 0.002 µM, 97% and 0.011 µM.
Taken in the same sequence, the figures for `O=C1CCC(N2Cc3cc(CN[C@@H]4CCCN(Cc5ccc(Cl)cc5)C4)ccc3C2=O)C(=O)N1` (stereo partly drawn) [Example 100, 3-(5-((((R)-1-(4-chlorobenzyl)piperidin-3-yl)amino)methyl)-1-oxoisoindolin-2-yl)piperidine-2,6-dione] were 98%, 0.001 µM, 97% and 0.006 µM.
The matching figures for `C[C@@H]1CCCC[C@H]1NCc1ccc2c(c1)CN(C1CCC(=O)NC1=O)C2=O` (stereo partly drawn) [Example 101]: 23%, 0.107 µM, 71% and 0.157 µM.
As for `C[C@H]1CCCC[C@@H]1NCc1ccc2c(c1)CN(C1CCC(=O)NC1=O)C2=O` (stereo partly drawn) [Example 102], on IKZF1, the Dmax was 23% and the DC50 came out at 0.164 µM. Also, on IKZF2, the Dmax turned out to be 69% and the DC50 worked out at 0.22 µM.
As to `CC1(c2ccccc2)CCC(NCc2ccc3c(c2)CN(C2CCC(=O)NC2=O)C3=O)CC1` (stereo not drawn) [Example 103, 3-(5-(((4-methyl-4-phenylcyclohexyl)amino)methyl)-1-oxoisoindolin-2-yl)piperidine-2,6-dione], at IKZF1, the Dmax stood at 97% and the DC50 worked out at 0.003 µM. Besides, on IKZF2, the Dmax amounted to 91% and the DC50 worked out at 0.023 µM.
Taken in the same sequence, the figures for `O=C1CCC(N2Cc3cc(CNC4CCC(Oc5ccccc5)CC4)ccc3C2=O)C(=O)N1` (stereo not drawn) [Example 104] were 82%, 0.023 µM, 72% and 0.042 µM.
With `O=C1CCC(N2Cc3cc(CNC4CC5CCC(C5)C4)ccc3C2=O)C(=O)N1` (stereo not drawn) [Example 105], on IKZF1, the Dmax turned out to be 75% and the DC50 was 0.074 µM. On IKZF2, the Dmax came to 92% and the DC50 is 0.043 µM.
For the compound `C[C@@H]1[C@H](NCc2ccc3c(c2)CN(C2CCC(=O)NC2=O)C3=O)CCCN1Cc1ccccc1` (stereo partly drawn) [Example 106, 3-(5-((((2R,3R)-1-benzyl-2-methylpiperidin-3-yl)amino)methyl)-1-oxoisoindolin-2-yl)piperidine-2,6-dione], at IKZF1, the Dmax worked out at 86% and the DC50 amounted to 0.093 µM. Besides, at IKZF2, the Dmax came out at 43% and the DC50 was 0.381 µM.
For the compound `CO[C@H]1CCCC[C@H]1NCc1ccc2c(c1)CN(C1CCC(=O)NC1=O)C2=O` (stereo partly drawn) [Example 107], the results for the Dmax on IKZF1 and on IKZF2 were 38% and 28%, respectively. For the same compound, the results for the DC50 at IKZF1 and on IKZF2 were 0.158 µM and 0.265 µM, respectively.
Taken in the same sequence, the figures for `CO[C@@H]1CCCC[C@@H]1NCc1ccc2c(c1)CN(C1CCC(=O)NC1=O)C2=O` (stereo partly drawn) [Example 108] were 89%, 96%, 0.026 µM and 0.016 µM.
In the case of `O=C1CCC(N2Cc3cc(CNC4CC(c5ccccc5)CN(Cc5ccccc5)C4)ccc3C2=O)C(=O)N1` (stereo not drawn) [Example 109, 3-(5-(((1-benzyl-5-phenylpiperidin-3-yl)amino)methyl)-1-oxoisoindolin-2-yl)piperidine-2,6-dione], on IKZF1, the Dmax amounted to 71% and the DC50 stood at 0.045 µM. Besides, on IKZF2, the Dmax worked out at 30% and the DC50 was found to be 0.121 µM.
For the compound `O=C1CCC(N2Cc3cc(CN[C@H]4CCC[C@@H](Oc5ccccc5)C4)ccc3C2=O)C(=O)N1` (stereo partly drawn) [Example 110], at IKZF1, the Dmax was found to be 55% and the DC50 came to 0.105 µM. In addition, at IKZF2, the Dmax amounted to 72% and the DC50 is 0.118 µM.
As for `O=C1CCC(N2Cc3cc(CN[C@H]4CCC[C@@H](OCc5ccccc5)C4)ccc3C2=O)C(=O)N1` (stereo partly drawn) [Example 111], on IKZF1, the Dmax came out at 61% and the DC50 stood at 0.085 µM. Also, at IKZF2, the Dmax turned out to be 56% and the DC50 stood at 0.206 µM.
The matching figures for `O=C1CCC(N2Cc3cc(CN[C@@H]4CCC[C@H](OCc5ccccc5)C4)ccc3C2=O)C(=O)N1` (stereo partly drawn) [Example 112]: 95%, 0.007 µM, 90% and 0.075 µM.
With `CC1(NCc2ccc3c(c2)CN(C2CCC(=O)NC2=O)C3=O)CCCCC1` (stereo not drawn) [Example 113], at IKZF1, the Dmax was 27% and the DC50 was 0.096 µM. For the same compound, at IKZF2, the Dmax is 95% and the DC50 turned out to be 0.049 µM.
For `O=C1CCC(N2Cc3cc(CNC4CCC5(CCc6ccccc65)CC4)ccc3C2=O)C(=O)N1` (stereo not drawn) [Example 114, 3-(5-(((2′,3′-dihydrospiro[cyclohexane-1,1′-inden]-4-yl)amino)methyl)-1-oxoisoindolin-2-yl)piperidine-2,6-dione], on IKZF1, the Dmax came to 62% and the DC50 was 0.052 µM. On IKZF2, the Dmax came out at 78% and the DC50 stood at 0.068 µM.
Taken in the same sequence, the figures for `O=C1CCC(N2Cc3cc(CN[C@@H]4CCC[C@H](Cc5ccccc5)C4)ccc3C2=O)C(=O)N1` (stereo partly drawn) [Example 115] were 87%, 0.004 µM, 97% and 0.008 µM.
The matching figures for `O=C1CCC(N2Cc3cc(CN[C@H]4CCC[C@@H](Cc5ccccc5)C4)ccc3C2=O)C(=O)N1` (stereo partly drawn) [Example 116]: 82%, 0.023 µM, 81% and 0.068 µM.
The matching figures for `CC1(C)C[C@]2(CC[C@H](NCc3ccc4c(c3)CN(C3CCC(=O)NC3=O)C4=O)CC2)CO1` (stereo partly drawn) [Example 117]: 49%, 0.216 µM, 88% and 0.198 µM.
On to `CC1(C)C[C@]2(CC[C@@H](NCc3ccc4c(c3)CN(C3CCC(=O)NC3=O)C4=O)CC2)CO1` (stereo partly drawn) [Example 118], for which, at IKZF1, the Dmax amounted to 51% and the DC50 worked out at 0.335 µM. Moreover, on IKZF2, the Dmax is 78% and the DC50 worked out at 0.453 µM.
Taken in the same sequence, the figures for `C[C@H]1CC[C@@H](NCc2ccc3c(c2)CN(C2CCC(=O)NC2=O)C3=O)CN1Cc1ccccc1` (stereo partly drawn) [Example 119, 3-(5-((((3R,6S)-1-benzyl-6-methylpiperidin-3-yl)amino)methyl)-1-oxoisoindolin-2-yl)piperidine-2,6-dione] were 94%, 0.017 µM, 93% and 0.105 µM.
Turning to `O=C1CCC(N2Cc3cc(CN[C@H]4CCCC[C@H]4OCc4ccccc4)ccc3C2=O)C(=O)N1` (stereo partly drawn) [Example 120], on IKZF1, the Dmax was determined as 97% and the DC50 was 0.002 µM. Also, at IKZF2, the Dmax was 97% and the DC50 is 0.003 µM.
For `O=C1CCC(N2Cc3cc(CNC4CCCC(Cn5cccn5)C4)ccc3C2=O)C(=O)N1` (stereo not drawn) [Example 121], on IKZF1, the Dmax stood at 93% and the DC50 is 0.169 µM. In addition, at IKZF2, the Dmax was 92% and the DC50 was determined as 0.336 µM.
On to `O=C1CCC(N2Cc3cc(CNC4CCCC(Cn5ncc6ccccc65)C4)ccc3C2=O)C(=O)N1` (stereo not drawn) [Example 122], for which the Dmax at IKZF1 came to 97%; on IKZF2 it was 96%. In addition, the DC50 on IKZF1 was 0.022 µM; at IKZF2, 0.048 µM.
For `O=C1CCC(N2Cc3cc(CN[C@@H]4CCCN(C(c5ccccc5)C(F)(F)F)C4)ccc3C2=O)C(=O)N1` (stereo partly drawn) [Example 123], on IKZF1, the Dmax is 95% and the DC50 turned out to be 0.01 µM. On IKZF2, the Dmax is 87% and the DC50 is 0.056 µM.
The matching figures for `O=C1CCC(N2Cc3cc(CN[C@@H]4CCCN(Cc5cccnc5)C4)ccc3C2=O)C(=O)N1` (stereo partly drawn) [Example 124, 3-(1-oxo-5-((((R)-1-(pyridin-3-ylmethyl)piperidin-3-yl)amino)methyl)isoindolin-2-yl)piperidine-2,6-dione]: 96%, 0.115 µM, 96% and 0.318 µM.
Taken in the same sequence, the figures for `O=C1CCC(N2Cc3cc(CN[C@@H]4CCCN(Cc5ccncc5)C4)ccc3C2=O)C(=O)N1` (stereo partly drawn) [Example 125, 3-(1-oxo-5-((((R)-1-(pyridin-4-ylmethyl)piperidin-3-yl)amino)methyl)isoindolin-2-yl)piperidine-2,6-dione] were 95%, 0.124 µM, 86% and 0.427 µM.
For the compound `O=C1CCC(N2Cc3cc(CN[C@@H]4CCCC[C@H]4OCc4ccccc4)ccc3C2=O)C(=O)N1` (stereo partly drawn) [Example 126], at IKZF1, the Dmax is 53% and the DC50 came to 0.151 µM. In addition, at IKZF2, the Dmax is 93% and the DC50 was 0.079 µM.
Turning to `CO[C@@H]1CCCC[C@H]1NCc1ccc2c(c1)CN(C1CCC(=O)NC1=O)C2=O` (stereo partly drawn) [Example 127], the Dmax at IKZF1 was 57%; on IKZF2, 85%. The DC50 at IKZF1 was 0.213 µM; on IKZF2, 0.17 µM.
